This is an account of results in patent publication US5082926A, “Polypeptide with type IV collagen cell adhesion, spreading and motility activity” (Regents of the University of Minnesota, priority 1989, dated 1992).

Test [1] deals with M4 melanoma cells. The settings on record: 50 μg/ml.
Description: The collagen coating concentration (5 μg/ml) was chosen based on the concentration which yielded half-maximal levels of cellular motility. The inhibitory effect of the peptides on cell motility was determined by preincubating the cells with increasing concentrations of the peptides for 20 min. prior to the assay to allow for binding to cell surface receptors. Cells in the continued presence of peptides were then added to the upper wells of chambers containing the protein-coated filters.
The subject of test [2] is Bovine aortic endothelial cells. In words: Cell adhesion and spreading on coated peptide IV-H1 or type IV collagen. It counts as cell-based. The settings on record: surface coated at 100 μg/ml. How it is done:
(§1) To characterize peptide IV-H1, the interaction of the peptide with other cell lines was investigated. These cell lines include the highly metastatic human melanoma cell line A375 M (also provided by Dr. Fidler), which was maintained in MEM with added vitamins and 10% FBS; and the fibrosarcoma cell line UV2237 MM, which was maintained in DME with 10% FBS. […]
(§2) Immulon 1 microtiter plates were prepared by drying down 100 μl/well of IV-H1 peptide which had been diluted to various concentrations (1-500 μg/ml) in Voller's carbonate buffer. The ability of the IV-H1 peptide to bind the plates was determined using radioiodinated peptides (described previously) in order to be certain that any differences in cell adhesion (or spreading) were not due to differential binding to surfaces. […] Adhesion was quantitated after washing to remove nonadherent and weakly adherent cells, by solubilizing the cells with 150 μl/well of 0.5N NaOH containing 1% SDS. Bound radioactivity was quantitated in a Beckman LS 3801 liquid scintillation counter. […] Each experiment was repeated a minimum of three times, and within a given experiment, each experimental point was determined in triplicate. […]

The next test has as its system UV 2237 fibrosarcoma. The test is described as above. The settings on record: surface coated at 100 μg/ml. It counts as cell-based, murine. Here is the method: as §1, §2
Another test relates to K 1735 M4 melanoma cells. In words: Melanoma cell adhesion and spreading on peptide-coated Immulon 1 wells. It counts as cell-based, mouse. The settings on record: K1735 M4 melanoma; surface coated at 100 μg/ml; average of three experiments. Here is the method: Subconfluent cultures of M4 melanoma cells were radiolabeled overnight with 2 μCi/ml ^3 H-thymidine. […] The melanoma cells were then washed and resuspended to a final concentration of 3-4×10^4 cells/ml in DME supplemented with 20 mM Hepes and 10 mg/ml BSA. The cells remained viable (>95%) after this procedure, based upon exclusion of trypan blue dye.
(§3) Immulon 1 microtiter plates were prepared by drying down 100 μl/well of IV-H1 peptide which had been diluted to various concentrations (1-500 μg/ml) in Voller's carbonate buffer. The ability of the IV-H1 peptide to bind the plates was determined using radioiodinated peptides (described previously) in order to be certain that any differences in cell adhesion (or spreading) were not due to differential binding to surfaces. Nonspecific cell adhesion to sites on the plastic was blocked by the use of a 10 mg/ml solution of BSA in Voller's carbonate buffer at 37° C. for 1 hr. […] Adhesion was quantitated after washing to remove nonadherent and weakly adherent cells, by solubilizing the cells with 150 μl/well of 0.5N NaOH containing 1% SDS. Bound radioactivity was quantitated in a Beckman LS 3801 liquid scintillation counter. […] Each experiment was repeated a minimum of three times, and within a given experiment, each experimental point was determined in triplicate.

In test [3] the test system is M4 melanoma cells. In words: Melanoma cell motility in microchemotaxis chambers on coated filters. It counts as cell-based, mouse. Particulars: 10 μg/ml solution. How it is done:
In light of the involvement of cell adhesion and spreading in motility, peptide IV-H1 was studied for its ability to directly promote melanoma cell motility. Peptide-mediated M4 melanoma cell motility was examined in 48-well microchemotaxis chambers (Neuroprobe, Bethesda, MD) equipped with 8 μm pore size polyvinylpyrrolidone-free polycarbonate filters by a modification of a procedure described by Herbst et al., supra. Briefly, peptides were diluted in Voller's carbonate buffer and added in triplicate 50 μl aliquots to the lower wells of the chambers. The chambers were assembled with the filters in place and incubated overnight at 37° C. to allow the peptides to adsorb to the lower surfaces of the filters. The filters were then washed and transferred to fresh chambers which contained only media (DME containing 20 mM Hepes, pH 7.4). Cells were then added to the upper wells at 20,000/well in DME/Hepes media and incubated for 6 hr. at 37° C. in a humidified CO2 chamber. Filters were then washed, fixed and stained, and the number of cells which had migrated through the filters was quantitated using an Optomax Image Analysis System as described in Herbst et al., supra. Each experiment was repeated a minimum of three times. […] This compares with melanoma cell motility of 10-fold background levels in response to a 10 μg/ml solution of intact type IV collagen (FIG. 4b).

A further test has as its system B65 neuroblastoma. Briefly: Cell adhesion and spreading on coated peptide IV-H1 or type IV collagen. Particulars: surface coated at 100 μg/ml. It is filed as cell-based, rat.
Description: (§4) To characterize peptide IV-H1, the interaction of the peptide with other cell lines was investigated. These cell lines include the highly metastatic human melanoma cell line A375 M (also provided by Dr. Fidler), which was maintained in MEM with added vitamins and 10% FBS; and the fibrosarcoma cell line UV2237 MM, which was maintained in DME with 10% FBS. Other cell lines studied included: the C6 rat glioma cell line (ATCC, #CCL107), which was maintained in DME plus 10% CS; the SCC9 human squamous carcinoma cell line (ATCC, #CRL1629), which was maintained in a 1:1 solution of DME and HAM F12 containing 10% FBS; the B65 and B104 murine neuroblastoma cell lines which were obtained from Dr. David Schubert at the Salk Institute (Schuber et al., Nature, 249, 224-227 (1974)) and maintained in F12H media with supplements; and bovine aortic endothelial cells, which were isolated and maintained as described by Herbst et al., J. Cell Biol., 106, 1365-1373 (1988), the disclosure of which is incorporated by reference herein.
as §3, with “triplicate. […]” for “triplicate.”

The next test relates to C6 glioma. Described as above. It counts as cell-based, rat. Particulars: surface coated at 100 μg/ml.
Description: as §4
as §3, with “triplicate. […]” for “triplicate.”

In the next test the test system is B104 neuroblastoma. The test is described as above. It is filed as cell-based, rat. Particulars: surface coated at 100 μg/ml.
Description: as §4
as §3, with “triplicate. […]” for “triplicate.”

In test [4] the test system is Squamous carcinoma cell line (SCC9). The description is as above. It counts as cell-based, human. The settings on record: surface coated at 100 μg/ml. How it is done:
as §1, §2

The subject of the next test is A375 M melanoma. Described as above. It counts as cell-based, human. The settings on record: surface coated at 100 μg/ml. How it is done:
as §1, §2

Residues, ends and D or L forms follow the SMILES beside them.

Turning to `CC(C)[C@H](NC(=O)CN)C(=O)N[C@@H](CCCCN)C(=O)NCC(=O)N[C@@H](CC(=O)O)C(=O)N[C@@H](CCCCN)C(=O)NCC(=O)N[C@@H](CC(N)=O)C(=O)N1CCC[C@H]1C(=O)NCC(=O)N[C@@H](Cc1c[nH]c2ccccc12)C(=O)N1CCC[C@H]1C(=O)NCC(=O)N[C@@H](C)C(=O)N1CCC[C@H]1C(=O)O` [peptide IV-H1, GVKGDKGNPGWPGAP] (H-GVKGDKGNPGWPGAP-OH), the “maximal inhibition of type IV collagen-mediated cell motility” value in the test on M4 melanoma cells [1] stood at 80%.
On to “Type IV Collagen: Type IV collagen extracted from the Englebreth Holm Swarm sarcoma grown in lathyritic mice”, for which the “% AD (percent of input cells which adhered)” value in test [2] is given as 52.7%; with UV 2237 fibrosarcoma it was 7.9%; with K 1735 M4 melanoma cells it was 61.9%; in the test with B65 neuroblastoma it was 7.7%; in the test with C6 glioma, 100.0%; with B104 neuroblastoma it was 18.6%. Also, the “% AD (percent of input cells which adhered)” value in test [4] is 39.6%; in the test with A375 M melanoma, 50.3%. For the same compound, the melanoma cell motility in the test with M4 melanoma cells [3] was 10 -fold background levels.
